Patent publication US20220047563A1, “COMBINATION THERAPY FOR THE TREATMENT OF ESTROGEN-RECEPTOR POSITIVE BREAST CANCER” (ZENITH EPIGENETICS LTD., priority 2018, published 2022)

How the values were obtained:
Format in all cases: cell-based
WT-MCF7 cells [1] = experiment: Cell viability (CellTiter Fluor), combination of Compound I with abemaciclib, WT-MCF7; settings: 7 days, average of CI at ED50, 75, 90 (Chou-Talalay)
Method: (§1) MCF7, Palbo-R-MCF7, ZR-75-1, Abema-R MCF7, and Palbo-R ZR-75-1 cells were plated at a density of 7,500 cells per well in 96 well flat bottom plates in 1640-RPMI media containing 10% FBS and penicillin/streptomycin and incubated for 24 hours at 37° C., 5% CO2. Media was replaced with 1640-RPM I containing 10% FBS with constant ratios of either Compound I or abemaciclib as single agents, or a combination of both drugs at four different concentrations (2× IC50, 1× IC50, 0.5× IC50, 0.25× IC50), and incubated at 37° C., 5% CO2 for 7 days. The cells were retreated as described above on the 3rd or 4th day. Triplicate wells were used for each concentration and wells containing only media with 0.1% DMSO were used as a control. […] Fluorescence at 380-400 nm Excitation/505 nm Emission was read in a fluorometer and the percentage of cell titer relative to DMSO-treated cells was calculated after correcting for background by subtracting the blank well's signal. IC50 values for single agents were calculated using the GraphPad Prism software. Quantification of synergy was done by calculating combination indices (CI) using the CalcuSyn software (Biosoft) based on the Chou-Talalay algorithm (Chou and Talalay, 1984), and averaging the CI values for the effective doses (ED) 50, 75, and 90.

Palbo-R-MCF7 cells = experiment: Cell viability (CellTiter Fluor), combination of Compound I with abemaciclib, Palbo-R-MCF7; settings: 7 days, average of CI at ED50, 75, 90 (Chou-Talalay)
Method: as §1

ZR-75-1 cells = experiment: Cell viability (CellTiter Fluor), combination of Compound I with abemaciclib, ZR-75-1; settings: 7 days, average of CI at ED50, 75, 90 (Chou-Talalay)
Method: as §1

Palbo-R ZR-75-1 cells = experiment: Cell viability (CellTiter Fluor), combination of Compound I with abemaciclib, Palbo-R ZR-75-1; settings: 7 days, average of CI at ED50, 75, 90 (Chou-Talalay)
Method: as §1

Abema-R MCF7 cells = experiment: Cell viability (CellTiter Fluor), combination of Compound I with abemaciclib, Abema-R MCF7; settings: 7 days, average of CI at ED50, 75, 90 (Chou-Talalay)
Method: as §1

WT-MCF7 cells [2] = experiment: Cell viability (CellTiter Fluor), combination of Compound I with fulvestrant, MCF7; settings: 7 days
Method: MCF7 cells were plated at a density of 7,500 cells per well in 96 well flat bottom plates in phenol-red free 1640-RPMI media containing 10% charcoal-stripped FBS and penicillin/streptomycin and incubated for 24 hours at 37° C., 5% CO2. Media was replaced with phenol-red free 1640-RPM I media containing 10% charcoal-stripped FBS and penicillin/streptomycin treated with constant ratios of either Compound I or fulvestrant as single agents, or a combination of both drugs at four different concentrations (2× IC50, 1× IC50, 0.5× IC50, 0.25× IC50), and incubated at 37° C., 5% CO2 for 7 days. The cells were retreated as described above on the 3rd or 4th day. Triplicate wells were used for each concentration and wells containing only media with 0.1% DMSO were used as a control. […] Fluorescence at 380-400 nm Excitation/505 nm Emission was read in a fluorometer and the percentage of cell titer relative to DMSO-treated cells was calculated after correcting for background by subtracting the blank well's signal. IC50 values for single agents were calculated using the GraphPad Prism software. Quantification of synergy was done by calculating combination indices (CI) using the CalcuSyn software (Biosoft) based on the Chou-Talalay algorithm (Chou and Talalay, 1984), and averaging the CI values for the effective doses (ED) 50, 75, and 90.

[3] = test system: MCF7, Palbo-R-MCF7, ZR-75-1, Abema-R MCF7, and Palbo-R ZR-75-1 cells; experiment: Cell viability (CellTiter Fluor), combination of Compound I with abemaciclib, ER+ breast cancer cell line panel; settings: 7 days
Method: as §1

CNc1nc2ncc(-c3c(C)noc3C)cc2n1Cc1ccccc1 [Compound I, 1-benzyl-6-(3,5-dimethylisoxazol-4-yl)-N-methyl-1H-imidazo[4,5-b]pyridine-2-amine]
CI (combination index) (WT-MCF7 cells [1]): 0.08
CI (combination index) (Palbo-R-MCF7 cells): 0.20
CI (combination index) (ZR-75-1 cells): 0.14
CI (combination index) (Palbo-R ZR-75-1 cells): 0.35
CI (combination index) (Abema-R MCF7 cells): 0.30
inhibition of cell viability, combination versus single agents (WT-MCF7 cells [2]; addition of Compound I to fulvestrant): improved inhibition of cell viability compared to either single agent
CI (combination index) (WT-MCF7 cells [2]; combination with fulvestrant, charcoal-stripped FBS, phenol-red free media, average of CI at ED50, 75, 90 (Chou-Talalay)): 0.51
inhibition of cell viability, combination versus single agents ([3]; addition of Compound I to abemaciclib, five cell lines): improved inhibition of cell viability compared to either single agent
average CI value ([3]; combination with abemaciclib, depending upon the cell line (five cell lines)): 0.08-0.35
